Results from ChEMBL document CHEMBL5316339, “Discovery of a Series of Substituted 1H-((1,2,3-Triazol-4-yl)methoxy)pyrimidines as Brain Penetrants and Potent GluN2B-Selective Negative Allosteric Modulators” (J Med Chem, 2023).
Values after ≈ are worked out from the molar mass of the structure shown.

What was measured:
[1] = Metabolic stability in rat liver microsomes assessed as extraction ratio; assay type: ADME, Microsome; conditions: read-out: ERH
[2] = biological target: Glutamate receptor ionotropic, NMDA 2B (Rattus norvegicus, UniProt Q00960); assay: Displacement of 3-(3H) 1-(azetidin-1-yl)-2-(6- (4-fluoro-3-methyl-phenyl)pyrrolo-[…] pyridin-1yl)ethanone from GluN2B receptor in rat cortical membrane assessed as inhibition constant incubated for 2 hrs under shaking condition by liquid scintillator counter analysis; assay type: cell membranes, Cortex
[3] = Metabolic stability in human liver microsomes assessed as extraction ratio; assay type: ADME, Microsome; conditions: read-out: ERH
Cytochrome P450 2C19 = Cytochrome P450 2C19 (Homo sapiens, UniProt P33261); assay: Inhibition of CYP2C19 in human liver microsomes incubated for 10 mins by LC-MS/MS analysis; assay type: ADME, Microsome
Cytochrome P450 1A2 = biological target: T1, Cytochrome P450 1A2 (Homo sapiens, UniProt P05177); assay: Inhibition of CYP1A2 in human liver microsomes incubated for 10 mins by LC-MS/MS analysis; assay type: ADME, Microsome
T1 sequence (P05177 whole entry): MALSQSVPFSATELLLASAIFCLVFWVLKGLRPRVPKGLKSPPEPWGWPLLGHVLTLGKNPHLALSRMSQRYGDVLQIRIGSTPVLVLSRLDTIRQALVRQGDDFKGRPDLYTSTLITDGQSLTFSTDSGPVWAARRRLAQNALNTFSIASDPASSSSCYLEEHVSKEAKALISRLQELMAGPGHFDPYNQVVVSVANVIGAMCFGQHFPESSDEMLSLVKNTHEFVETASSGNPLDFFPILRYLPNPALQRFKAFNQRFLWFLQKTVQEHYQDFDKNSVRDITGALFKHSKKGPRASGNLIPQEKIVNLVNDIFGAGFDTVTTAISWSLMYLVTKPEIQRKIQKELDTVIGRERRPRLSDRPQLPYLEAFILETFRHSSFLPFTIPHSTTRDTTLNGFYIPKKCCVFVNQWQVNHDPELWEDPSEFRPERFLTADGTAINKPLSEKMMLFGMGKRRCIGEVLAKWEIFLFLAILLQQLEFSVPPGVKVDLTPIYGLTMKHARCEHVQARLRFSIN

MDR1 (P-gp) = assay: Efflux ratio of apparent permeability from basolateral to apical side over apical to basolateral side in MDCK-MDR1 cells at 5 uM incubated for 60 mins by LC-MS/MS analysis; assay type: ADME, cell-based, Canis lupus familiaris; conditions: dog
Cytochrome P450 2C9 = Cytochrome P450 2C9 (Homo sapiens, UniProt P11712); assay: Inhibition of CYP2C9 in human liver microsomes incubated for 10 mins by LC-MS/MS analysis; assay type: ADME, Microsome
[4] = biological target: Glutamate NMDA receptor; GRIN1/GRIN2B (Homo sapiens, UniProt Q05586+Q13224); assay: Negative allosteric modulation of human GluN1A/GluN2B receptor expressed in T-REX-CHO cells preincubated for 5 mins followed by glutamate and glycine addition and measured after 5 mins by FLIPR assay; assay type: cell-based
Cytochrome P450 2C8 = biological target: T2, Cytochrome P450 2C8 (Homo sapiens, UniProt P10632); assay: Inhibition of CYP2C8 in human liver microsomes incubated for 10 mins by LC-MS/MS analysis; assay type: ADME, Microsome
T2 sequence (P10632 whole entry): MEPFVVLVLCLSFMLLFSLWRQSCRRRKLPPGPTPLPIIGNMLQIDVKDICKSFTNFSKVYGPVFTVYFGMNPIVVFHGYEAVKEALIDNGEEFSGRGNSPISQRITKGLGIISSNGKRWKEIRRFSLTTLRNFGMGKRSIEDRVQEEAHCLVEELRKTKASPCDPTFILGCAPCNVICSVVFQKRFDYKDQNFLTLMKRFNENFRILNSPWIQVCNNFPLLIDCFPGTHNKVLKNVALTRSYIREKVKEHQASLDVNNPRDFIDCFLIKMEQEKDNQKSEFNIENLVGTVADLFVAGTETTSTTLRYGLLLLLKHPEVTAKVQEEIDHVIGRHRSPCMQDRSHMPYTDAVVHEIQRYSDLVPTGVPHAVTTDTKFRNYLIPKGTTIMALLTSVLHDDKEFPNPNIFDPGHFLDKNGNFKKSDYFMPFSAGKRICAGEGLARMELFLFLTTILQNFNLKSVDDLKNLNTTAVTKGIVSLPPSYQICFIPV

[5] = biological target: Voltage-gated inwardly rectifying potassium channel KCNH2 (Homo sapiens, UniProt Q12809); assay: Displacement of [3H]dofetilide from human ERG expressed in HEK293 cells; assay type: toxicity, cell-based
Cytochrome P450 3A4 = Cytochrome P450 3A4 (Homo sapiens, UniProt P08684); assay: Inhibition of CYP3A4 in human liver microsomes incubated for 10 mins by LC-MS/MS analysis; assay type: ADME, Microsome
Cytochrome P450 2D6 = Cytochrome P450 2D6 (Homo sapiens, UniProt P10635); assay: Inhibition of CYP2D6 in human liver microsomes incubated for 10 mins by LC-MS/MS analysis; assay type: ADME, Microsome
[6] = Thermodynamic solubility in aqueous phosphate buffer at pH 2; assay type: physicochemical; conditions: read-out: Therm_solubility
[7] = Thermodynamic solubility in aqueous phosphate buffer at pH 7; assay type: physicochemical; conditions: read-out: Therm_solubility

Cytochrome P450 2D6, sequence (P10635 whole entry): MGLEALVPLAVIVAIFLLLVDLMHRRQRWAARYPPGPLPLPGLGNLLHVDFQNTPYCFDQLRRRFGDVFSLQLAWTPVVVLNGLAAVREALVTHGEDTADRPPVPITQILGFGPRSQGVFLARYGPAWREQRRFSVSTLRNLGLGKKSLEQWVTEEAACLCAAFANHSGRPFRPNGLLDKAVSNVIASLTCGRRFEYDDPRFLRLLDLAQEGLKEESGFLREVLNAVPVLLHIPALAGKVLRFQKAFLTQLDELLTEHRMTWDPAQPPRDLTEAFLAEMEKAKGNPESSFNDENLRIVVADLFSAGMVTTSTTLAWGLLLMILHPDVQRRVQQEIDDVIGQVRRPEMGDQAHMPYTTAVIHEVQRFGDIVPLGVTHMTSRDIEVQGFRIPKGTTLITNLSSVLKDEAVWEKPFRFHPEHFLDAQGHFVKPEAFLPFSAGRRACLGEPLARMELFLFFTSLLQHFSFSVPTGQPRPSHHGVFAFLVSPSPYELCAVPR
Glutamate NMDA receptor; GRIN1/GRIN2B, sequence (Q13224 whole entry, other chains not shown): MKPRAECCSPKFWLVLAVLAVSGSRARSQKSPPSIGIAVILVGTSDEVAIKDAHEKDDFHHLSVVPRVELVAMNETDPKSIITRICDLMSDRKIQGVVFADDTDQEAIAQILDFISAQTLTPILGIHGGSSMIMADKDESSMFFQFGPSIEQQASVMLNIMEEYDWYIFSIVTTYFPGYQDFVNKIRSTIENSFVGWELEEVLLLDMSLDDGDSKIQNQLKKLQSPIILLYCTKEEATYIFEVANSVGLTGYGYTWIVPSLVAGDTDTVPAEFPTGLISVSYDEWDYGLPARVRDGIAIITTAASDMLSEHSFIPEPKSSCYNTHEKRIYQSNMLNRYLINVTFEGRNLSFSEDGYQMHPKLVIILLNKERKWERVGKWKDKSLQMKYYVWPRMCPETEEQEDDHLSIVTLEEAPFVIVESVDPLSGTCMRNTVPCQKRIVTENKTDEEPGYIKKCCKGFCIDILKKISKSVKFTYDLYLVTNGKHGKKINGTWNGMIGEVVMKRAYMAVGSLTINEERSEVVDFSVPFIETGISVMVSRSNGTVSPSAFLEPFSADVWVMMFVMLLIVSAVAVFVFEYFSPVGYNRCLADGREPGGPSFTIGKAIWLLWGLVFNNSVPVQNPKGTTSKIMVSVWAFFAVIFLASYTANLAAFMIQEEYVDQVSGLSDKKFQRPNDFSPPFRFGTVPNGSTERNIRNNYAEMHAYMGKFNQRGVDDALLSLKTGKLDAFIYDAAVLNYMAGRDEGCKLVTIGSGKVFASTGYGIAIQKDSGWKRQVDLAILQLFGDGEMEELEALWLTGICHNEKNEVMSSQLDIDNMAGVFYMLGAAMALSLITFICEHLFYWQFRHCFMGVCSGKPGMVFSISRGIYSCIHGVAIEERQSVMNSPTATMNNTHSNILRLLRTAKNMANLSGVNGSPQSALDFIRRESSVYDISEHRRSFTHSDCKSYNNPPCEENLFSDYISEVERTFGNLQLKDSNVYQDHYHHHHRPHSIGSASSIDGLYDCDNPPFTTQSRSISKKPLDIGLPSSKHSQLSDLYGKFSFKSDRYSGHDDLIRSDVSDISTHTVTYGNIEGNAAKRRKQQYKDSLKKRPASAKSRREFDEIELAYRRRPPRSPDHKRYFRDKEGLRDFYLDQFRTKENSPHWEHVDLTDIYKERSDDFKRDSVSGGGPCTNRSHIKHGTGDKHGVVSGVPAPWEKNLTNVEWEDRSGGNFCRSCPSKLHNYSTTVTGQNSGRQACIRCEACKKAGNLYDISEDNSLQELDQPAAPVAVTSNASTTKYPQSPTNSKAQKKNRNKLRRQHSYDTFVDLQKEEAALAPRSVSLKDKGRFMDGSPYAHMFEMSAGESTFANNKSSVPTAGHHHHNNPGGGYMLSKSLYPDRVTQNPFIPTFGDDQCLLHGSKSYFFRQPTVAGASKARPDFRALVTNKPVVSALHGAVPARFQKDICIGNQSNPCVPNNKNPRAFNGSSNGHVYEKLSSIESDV
Glutamate receptor ionotropic, NMDA 2B, sequence (Q00960 whole entry): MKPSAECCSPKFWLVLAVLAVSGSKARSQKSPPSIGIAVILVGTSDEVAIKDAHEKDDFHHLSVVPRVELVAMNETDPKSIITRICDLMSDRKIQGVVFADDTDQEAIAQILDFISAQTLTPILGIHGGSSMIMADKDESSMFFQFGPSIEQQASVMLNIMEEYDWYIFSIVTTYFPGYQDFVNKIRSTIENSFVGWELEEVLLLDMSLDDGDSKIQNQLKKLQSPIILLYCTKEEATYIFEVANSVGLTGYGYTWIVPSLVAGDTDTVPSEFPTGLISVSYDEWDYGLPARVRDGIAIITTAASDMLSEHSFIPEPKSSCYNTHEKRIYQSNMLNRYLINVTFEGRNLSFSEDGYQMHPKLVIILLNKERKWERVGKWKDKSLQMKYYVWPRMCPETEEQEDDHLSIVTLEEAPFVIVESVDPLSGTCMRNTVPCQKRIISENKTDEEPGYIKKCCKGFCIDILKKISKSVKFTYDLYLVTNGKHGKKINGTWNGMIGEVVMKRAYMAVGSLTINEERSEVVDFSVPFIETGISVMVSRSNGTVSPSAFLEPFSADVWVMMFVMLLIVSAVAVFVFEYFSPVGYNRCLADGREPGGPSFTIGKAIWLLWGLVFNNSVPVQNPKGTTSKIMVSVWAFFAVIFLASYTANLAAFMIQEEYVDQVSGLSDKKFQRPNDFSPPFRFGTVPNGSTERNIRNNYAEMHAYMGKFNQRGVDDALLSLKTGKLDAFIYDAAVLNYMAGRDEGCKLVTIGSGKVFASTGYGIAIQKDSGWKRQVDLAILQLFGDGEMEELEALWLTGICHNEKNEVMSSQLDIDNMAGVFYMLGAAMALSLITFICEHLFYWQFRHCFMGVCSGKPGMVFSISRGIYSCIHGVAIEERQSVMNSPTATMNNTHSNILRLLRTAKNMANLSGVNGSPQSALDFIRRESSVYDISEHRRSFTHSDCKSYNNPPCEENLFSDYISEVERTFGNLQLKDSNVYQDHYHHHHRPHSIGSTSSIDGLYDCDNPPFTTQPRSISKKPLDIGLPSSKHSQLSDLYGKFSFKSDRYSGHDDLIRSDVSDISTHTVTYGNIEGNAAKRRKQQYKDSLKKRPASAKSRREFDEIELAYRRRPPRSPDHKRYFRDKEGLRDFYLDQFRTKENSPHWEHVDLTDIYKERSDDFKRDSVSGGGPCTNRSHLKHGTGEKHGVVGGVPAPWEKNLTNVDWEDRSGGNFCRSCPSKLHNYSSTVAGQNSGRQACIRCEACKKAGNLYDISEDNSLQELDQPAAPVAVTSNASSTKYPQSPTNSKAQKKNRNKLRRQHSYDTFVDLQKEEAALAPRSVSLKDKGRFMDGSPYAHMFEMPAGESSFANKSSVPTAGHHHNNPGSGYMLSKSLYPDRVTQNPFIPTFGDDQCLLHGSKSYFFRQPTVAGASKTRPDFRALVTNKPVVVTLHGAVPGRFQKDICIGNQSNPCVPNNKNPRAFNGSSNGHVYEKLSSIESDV
Cytochrome P450 2C19, sequence (P33261 whole entry): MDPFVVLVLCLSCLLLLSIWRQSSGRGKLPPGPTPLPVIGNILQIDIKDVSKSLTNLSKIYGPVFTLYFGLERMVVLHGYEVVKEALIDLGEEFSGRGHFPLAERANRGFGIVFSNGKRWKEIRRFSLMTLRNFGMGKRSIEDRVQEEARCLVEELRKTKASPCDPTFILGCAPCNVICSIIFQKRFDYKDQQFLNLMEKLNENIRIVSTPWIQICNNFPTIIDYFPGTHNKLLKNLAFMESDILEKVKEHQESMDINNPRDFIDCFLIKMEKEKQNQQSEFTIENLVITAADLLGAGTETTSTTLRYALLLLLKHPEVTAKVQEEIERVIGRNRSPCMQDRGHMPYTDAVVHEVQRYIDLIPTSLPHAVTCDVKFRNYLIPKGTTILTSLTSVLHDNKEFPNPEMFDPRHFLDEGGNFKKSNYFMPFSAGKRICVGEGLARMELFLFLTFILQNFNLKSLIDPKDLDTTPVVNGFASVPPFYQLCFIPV
Voltage-gated inwardly rectifying potassium channel KCNH2, sequence (Q12809 whole entry): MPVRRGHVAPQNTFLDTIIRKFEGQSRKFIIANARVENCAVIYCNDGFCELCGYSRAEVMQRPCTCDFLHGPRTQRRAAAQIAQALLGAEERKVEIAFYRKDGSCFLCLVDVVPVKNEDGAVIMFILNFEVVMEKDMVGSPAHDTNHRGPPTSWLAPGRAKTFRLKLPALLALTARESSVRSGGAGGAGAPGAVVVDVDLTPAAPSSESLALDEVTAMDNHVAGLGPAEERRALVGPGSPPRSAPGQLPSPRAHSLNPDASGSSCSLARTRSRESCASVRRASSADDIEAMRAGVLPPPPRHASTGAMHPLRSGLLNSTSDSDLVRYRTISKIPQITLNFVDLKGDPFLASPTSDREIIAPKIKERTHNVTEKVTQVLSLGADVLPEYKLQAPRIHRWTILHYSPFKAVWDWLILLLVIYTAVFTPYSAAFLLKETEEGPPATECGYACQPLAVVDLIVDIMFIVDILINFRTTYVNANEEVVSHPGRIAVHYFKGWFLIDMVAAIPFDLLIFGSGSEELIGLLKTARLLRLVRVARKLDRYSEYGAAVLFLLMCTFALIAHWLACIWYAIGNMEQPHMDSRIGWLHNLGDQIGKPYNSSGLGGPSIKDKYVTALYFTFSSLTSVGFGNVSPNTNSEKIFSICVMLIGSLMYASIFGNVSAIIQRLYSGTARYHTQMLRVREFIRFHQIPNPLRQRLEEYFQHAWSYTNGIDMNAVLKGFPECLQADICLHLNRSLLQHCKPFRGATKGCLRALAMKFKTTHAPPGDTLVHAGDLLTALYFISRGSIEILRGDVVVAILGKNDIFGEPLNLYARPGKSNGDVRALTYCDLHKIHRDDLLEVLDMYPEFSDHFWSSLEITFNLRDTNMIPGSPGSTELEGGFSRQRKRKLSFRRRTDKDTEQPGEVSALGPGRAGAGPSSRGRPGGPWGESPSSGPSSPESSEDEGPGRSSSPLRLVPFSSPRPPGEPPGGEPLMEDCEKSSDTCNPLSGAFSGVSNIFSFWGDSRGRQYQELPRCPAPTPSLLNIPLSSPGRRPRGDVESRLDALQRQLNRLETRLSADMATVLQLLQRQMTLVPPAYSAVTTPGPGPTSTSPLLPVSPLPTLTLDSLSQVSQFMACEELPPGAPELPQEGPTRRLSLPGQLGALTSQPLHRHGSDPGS

SMILES | hepatic extraction ratio [1] | Ki [2] [nM] | hepatic extraction ratio [3] | IC50 (Cytochrome P450 2C19) [nM] | IC50 (Cytochrome P450 1A2) [nM] | efflux ratio at 1 h, 5 µM (MDR1 (P-gp)) | IC50 (Cytochrome P450 2C9) [nM] | IC50 [4] [nM] | IC50 (Cytochrome P450 2C8) [nM] | IC50 [5] [nM] | IC50 (Cytochrome P450 3A4) [nM] | IC50 (Cytochrome P450 2D6) [nM] | solubility thermodynamic [6] [µM] | solubility thermodynamic [7] [µM]
C[C@@H](Oc1ncccn1)c1cn(-c2ccc(Cl)c(OC(F)F)c2)nn1 | < 0.17 | 67 | 0.59 |  |  |  |  |  |  |  |  |  |  | 
FC(F)Oc1cc(-n2cc(CNc3ncccn3)nn2)ccc1Cl |  | 560 |  | > 10000 | > 10000 | 1.1 | > 10000 | 360 | > 10000 | > 10000 | > 10000 | > 10000 |  | 
Cc1cnc(OCc2nnn(-c3cccc(C(F)F)c3)c2C)nc1 |  | 3500 |  |  |  |  |  | 1200 |  |  |  |  | 210 (≈ 69.6 µg/mL) | 320 (≈ 106 µg/mL)
Cc1cnc(OCc2cn(-c3ccnc(C)c3)nn2)nc1 |  | 1900 |  |  |  | 1.2 |  | 770 |  |  |  |  | 560 (≈ 158 µg/mL) | 530 (≈ 150 µg/mL)
Cc1ccnc(OCc2cn(-c3ccc(F)c(OC(F)F)c3)nn2)n1 |  | 13 |  |  |  | 0.9 |  | 8.3 |  | > 10000 |  |  | 92 (≈ 32.3 µg/mL) | 70 (≈ 24.6 µg/mL)
FC(F)Oc1cc(-n2cc(COc3ccncn3)nn2)ccc1Cl |  | 900 |  |  |  | 1.1 |  | 840 |  |  |  |  |  | 
FC(F)Oc1cc(-n2cc(COc3cnccn3)nn2)ccc1Cl |  | 680 |  |  |  | 0.91 |  | 600 |  |  |  |  |  | 
Fc1cccnc1OCc1cn(C2CCC(Cl)C(OC(F)F)C2)nn1 (stereo not drawn) |  | 889 |  | 5300 | 5200 |  |  | 130 |  |  |  | 2200 |  | 
Fc1ccc(-n2cc(COc3ncc(N4CCC4)cn3)nn2)cc1OC(F)F |  | 6.8 |  |  |  | 1 |  | 11 |  | > 10000 |  |  | 11 (≈ 4.32 µg/mL) | < 4
CNc1ccnc(OCc2cn(-c3ccc(F)c(OC(F)F)c3)nn2)n1 |  | 10 |  |  |  | 7.7 |  | 7.8 |  | > 10000 |  |  | > 400 | 24 (≈ 8.79 µg/mL)
FC(F)Oc1cc(-n2cc(CNc3ncco3)nn2)ccc1Cl |  | 810 |  |  | 3400 | 1.5 |  | 390 |  | > 10000 |  |  |  | 
Cc1cnc(OCc2cn(-c3ccc(Cl)c(OC(F)F)c3)nn2)nc1 | 0.51 | 1.3 | 0.83 |  |  |  |  | 1.9 |  | 5600 |  |  |  | 
FC(F)Oc1cc(-n2cc(CNc3ccccn3)nn2)ccc1Cl |  | 630 |  | 7900 |  | 1 |  | 500 |  | 8000 |  |  |  | 
CC(C)(O)c1cnc(OCc2cn(-c3ccc(F)c(OC(F)F)c3)nn2)nc1 |  | 57 |  |  |  | 11.8 |  | 49 |  | > 10000 |  |  | 560 (≈ 221 µg/mL) | 510 (≈ 202 µg/mL)
FC(F)Oc1cc(-n2cc(COc3cccnn3)nn2)ccc1Cl |  | 1870 |  |  |  |  |  | 580 |  |  |  |  |  | 
Nc1nc(OCc2cn(-c3ccc(F)c(OC(F)F)c3)nn2)ncc1F |  | 44 |  |  |  | 3 |  | 16 |  | > 10000 |  |  | 560 (≈ 207 µg/mL) | 28 (≈ 10.4 µg/mL)
FC(F)Oc1cc(-n2cc(Cn3ccnc3)nn2)ccc1Cl |  | 35 |  | 420 | 110 | 3.9 | 1100 | 59 | 3400 | > 10000 | 2600 | 30 |  | 
Fc1ccc(-n2cc(COc3nccc(N4CC(F)C4)n3)nn2)cc1OC(F)F |  | 14 |  |  |  | 2.6 |  | 16 |  | > 10000 |  |  | > 400 | < 4
Cc1cnc(OCc2cn(-c3cccc(C(F)F)c3)nn2)nc1 |  | 65 |  |  |  |  |  | 25 |  | > 10000 |  |  | 17 (≈ 5.39 µg/mL) | 22 (≈ 6.98 µg/mL)
FC(F)Oc1cc(-n2cc(COc3cncnc3)nn2)ccc1Cl |  | 1800 |  |  |  |  |  | 2500 |  |  |  |  |  | 
